# From patent US9211296B2, “Therapeutic compounds for blocking DNA synthesis of POX viruses” (priority 2007, dated 2015)
# Target: vaccinia virus DNA synthesis (viral DNA polymerase and its associated factors) (Vaccinia virus, UniProt P06856)
# Type: biochemical
# Details: read-out: DNA Synthesis IC50
# Throughout, for Blocking the replication of vaccinia virus in cells: test concentration or dose not given here.
row,Structure (SMILES),IC50
1,CC1=CC(C)(C)N=C(Nc2nc(C)c3cc(C)cc(C)c3n2)N1,5.3 µM
2,Cc1cc(NCCN2CCCCC2)c2ccc3ccccc3c2n1,6 µM
3,CC(C)Nc1ccc(Nc2ccnc3cc4ccccc4cc23)cc1,4.1 µM
4,O=C(O)c1ccc(CS(=O)(=O)c2ccccc2)o1,7.4 µM
5,Cc1ccc2nc(Cl)c3cc(C(=O)N(CCN(C)C)Cc4ccco4)sc3c2c1,10 µM
6,CCOC(=O)c1cnc2c(C)c(C)ccc2c1NCCCN(C)C,5 µM
7,CN(C)CCc1cc2c(c3c1ccc1ccccc13)OCO2,5.4 µM
8,CC1CCCC(C)N1CCNc1nc2ccccc2c2nc(-c3ccccc3)nn12 (centres unmarked),7.3 µM
9,CCN1CCN(c2ccc(Nc3ccnc4cc5ccccc5cc34)cc2)CC1,0.5 µM
10,BrCc1ccc(-c2noc(-c3ccncc3)n2)cc1,1.3 µM
11,O=C(NCCCN1CCCC1)c1cc2c(Cl)nc3ccccc3c2s1,10 µM
12,CCN(CC)CCCNc1nc2cc(OC)c(OC)cc2c2nc(-c3ccccc3)nn12,5.9 µM
13,CN(C)CC/N=c1\cc(-c2ccccc2)oc2ccc(Cl)cc12 [drawing 93],6.7 µM
14,COc1ccc2nc(NC(=N)N)nc(C)c2c1,7.4 µM
15,OC(CN1CCNCC1)Cn1c2ccc(Br)cc2c2cc(Br)ccc21 (centres unmarked),6.3 µM
16,CC[n+]1cc(/C=C2\SC=CN2C)c(C)c2cc(OC)c3ccccc3c21,3.5 µM
17,COc1ccc2c(c1)C=C/C(=C\c1sc3ccccc3[n+]1C)N2C,4 µM

# System: vaccinia virus
# Type: cell-based
# Details: not given
row,Structure (SMILES),Blocking the replication of vaccinia virus in cells
1,"N=C1/C(=C/c2coc3ccccc3c2=O)C(=O)N=C2SC=NN12 [XIII, (Z)-5-imino-6-((4-oxo-4H-chromen-3-yl)methylene)-5H-[1,3,4]thiadiazolo[3,2-a]pyrimidin-7(6H)-one]",effective in blocking the replication of vaccinia virus in cells
2,"Cn1cc(C2=C(c3cn(CCCSC(=N)N)c4ccccc34)C(=O)NC2=O)c2ccccc21 [VI, Carbamimidothioic acid, 3-[3-[2,5-dihydro-4-(1-methyl-1H-indol-3-yl)-2,5-dioxo-1H-pyrrol-3-yl]-1H-indol-1-yl]propyl ester (9CI)]",effective in blocking the replication of vaccinia virus in cells
3,"O=C1CSC(=S)N1/N=C/c1ccc(Cl)c([N+](=O)[O-])c1 [XXXIX, (E)-3-(4-chloro-3-nitrobenzylideneamino)-2-thioxothiazolidin-4-one]",effective in blocking the replication of vaccinia virus in cells
4,"CCN1CCCC1CNC(=O)c1ccc2c(c1)sc1nc(-c3cccc(OC)c3)cn12 (centres unmarked) [XVIII, Imidazo[2,1-b]benzothiazole-7-carboxamide, N-(1-ethyl-2-pyrrolidyl)methyl-2-(3-methoxyphenyl)-(9CI)]",effective in blocking the replication of vaccinia virus in cells
5,"CC(=O)n1c2ccccc2c2nc(C)sc21 [XVII, 4H-Thiazolo[5,4-b]indole, 4-acetyl-2-methyl-(9CI)]",effective in blocking the replication of vaccinia virus in cells
6,"Cc1cc(/N=C/c2cc(Cl)cc(Cl)c2O)no1 [XVI, (E)-2,4-dichloro-6-((5-methylisoxazol-3-ylimino)methyl)phenol]",effective in blocking the replication of vaccinia virus in cells
7,"O=C(O)c1ccccc1Nc1cccc(C(F)(F)F)c1 [IV, Flufenamic Acid]",effective in blocking the replication of vaccinia virus in cells
8,"c1ccc2nc3c(nc2c1)c1ccccc1n3CCN1CCOCC1 [X, 6H-Indolo[2,3-b]quinoxaline-6-(2-morpholinoethy)]",effective in blocking the replication of vaccinia virus in cells
9,"[H]/N=C1/SC(=Cc2ccco2)C(=O)N1c1nccs1 [XXXII, (E)-5-(furan-2-ylmethylene)-2-imino-3-(thiazol-2-yl)thiazolidin-4-one]",effective in blocking the replication of vaccinia virus in cells
